Data taken from patent US20010011137A1, “Use of triphenylmethyl-1,2,3-triazoles” (priority 1996, published 2001).

In the case of `Clc1ccccc1C(c1ccccc1)(c1ccccc1)n1ccnn1` [Example 10, 1-(2-chlorotrityl)-1H-1,2,3-triazole], the melting point is reported as 162 °C.
